Tests used:
[1] = test system: differentiated 3T3-L1 adipocytes; test: qRT-PCR gene expression in differentiated 3T3-L1 adipocytes; format: cell-based, mouse; settings: 24 h
Description: (§1) Figure 3 MD001 promotes glucose consumption by induction of GLUT expression. HepG2 (A), differentiated 3T3-L1 adipocytes (B), and differentiated C2C12 myotubes (C) were treated with vehicle, MD001 (10, 50 μM), or rosiglitazone (rosi, 10 μM) for 24 h; glucose consumption was examined as described in the Methods section. Cells were harvested for total RNA isolation. Relative expression levels of GLUT2 (D) and GLUT4 (E,F) were quantitated using qRT-PCR. *, **, and ^† vs. vehicle. Data represent the mean ± SD of three independent experiments. *P < 0.05, **P < 0.01, and ^†P < 0.01.
(§2) Figure 4 MD001 stimulates fatty acid oxidation in vitro. […] Relative gene expressions were analysed by qRT-PCR. HepG2 (D), differentiated 3T3-L1 adipocytes (E), and differentiated C2C12 myotubes (F) were treated with vehicle, MD001 (10 μM), or WY14643 (WY) (10 μM) for 24 h and the fatty acid oxidation rate was analysed as described in the Methods section. […]
(§3) Total RNA was isolated using an RNeasy kit (Qiagen, Germantown, MD, USA) according to the manufacturer’s instructions. Complementary DNA (cDNA) was synthesised by reverse transcription using 0.5 μg of total RNA, and quantitative RT-PCR was performed using Power SYBR Green PCR Master Mix (ABI Thermo Fisher Scientific, Foster City, CA, USA) on a StepOne 48-well real-time PCR system (ABI/Thermo Fisher Scientific). […]

HepG2 cells = test: In vitro glucose consumption assay, HepG2; format: cell-based, human; settings: 10, 50 μM, 24 h
Description: as §1
The glucose consumption assay was performed as previously described. Briefly, cells were treated with MD001 or rosiglitazone […]. The conditioned medium from cultured cells was harvested and assayed for glucose content using a Glucose Colorimetric Assay Kit II (BioVision Inc., Milpitas, CA, USA).

[2] = test system: differentiated C2C12 myotubes; test: qRT-PCR gene expression in differentiated C2C12 myotubes; format: cell-based, mouse; settings: 24 h
Description: as §1, §2, §3

Cc1c(O)cc(O)c2c(-c3ccccc3)c(C(=O)/C=C/c3ccccc3)c(=O)oc12 [MD001]
expression levels of ACOX and CPT ([1]; 10 μM): significantly increased | expression of glucose transporter GLUT4 ([1]; 10, 50 μM): significantly increased | glucose consumption (HepG2 cells): significantly increased glucose consumption in a dose-dependent manner | expression levels of ACOX and CPT ([2]; 10 μM): significantly increased | expression of glucose transporter GLUT4 ([2]; 10, 50 μM): significantly increased

From article PMC6367362, “MD001, a Novel Peroxisome Proliferator-activated Receptor α/γ Agonist, Improves Glucose and Lipid Metabolism” (Scientific Reports, 2019)
